Results on 16 compounds are retold here after US10815210B2, “Benzocyclobutane derivatives useful as dual SGLT1 / SGLT2 modulators” (Janssen Pharmaceutica NV, priority 2016, dated 2020).

In experiment [1] the target is T1, human SGLT1 (Homo sapiens, UniProt P13866).
T1 construct: expressed in transfected cells; host or cells: CHO-K1
T1 sequence (P13866 1-664): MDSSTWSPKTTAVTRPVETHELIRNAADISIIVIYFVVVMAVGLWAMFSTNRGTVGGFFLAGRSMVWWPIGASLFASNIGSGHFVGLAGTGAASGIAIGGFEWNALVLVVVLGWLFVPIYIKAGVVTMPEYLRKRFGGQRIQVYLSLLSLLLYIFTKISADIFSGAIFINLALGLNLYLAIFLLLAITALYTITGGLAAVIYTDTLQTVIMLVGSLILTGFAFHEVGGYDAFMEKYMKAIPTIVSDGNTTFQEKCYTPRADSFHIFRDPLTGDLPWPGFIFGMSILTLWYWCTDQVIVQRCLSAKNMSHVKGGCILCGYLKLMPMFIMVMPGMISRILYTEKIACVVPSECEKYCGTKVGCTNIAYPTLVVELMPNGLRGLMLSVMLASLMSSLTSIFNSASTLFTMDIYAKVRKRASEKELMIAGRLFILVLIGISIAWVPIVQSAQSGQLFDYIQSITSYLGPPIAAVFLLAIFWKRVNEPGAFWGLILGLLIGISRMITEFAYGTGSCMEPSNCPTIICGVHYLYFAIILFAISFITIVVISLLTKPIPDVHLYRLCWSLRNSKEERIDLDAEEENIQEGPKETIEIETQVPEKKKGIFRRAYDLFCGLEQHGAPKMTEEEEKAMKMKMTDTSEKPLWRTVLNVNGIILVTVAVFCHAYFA
As to the kind of experiment: SGLT1 assay: Na-dependent 14C-AMG uptake in CHO-K1 cells stably expressing human SGLT1. Type of experiment: cell-based. The settings on record: for IC50: 500 μM AMG, 2 hours at 37° C. The procedure:
(§1) SGLT1 and SGLT2 were cloned in form of cDNA from human small intestine (Genbank M24847), and from human kidney (Genbank M95549), respectively. Subsequently, each full cDNA was subcloned into pcDNA with each construct's integrity verified through follow-on sequencing. To generate CHO-K1 cells that stably express human SGLT1 or human SGLT2, CHO-K1 cells were transfected using DMRIE-C reagent (Life Technologies, Gaithersburg, Md.). Transfected cells were then selected in the presence of 500 μg/ml of the Geneticin (G418 Cellgro Catalog No. 30234-CI)
(§2) Individual clones were then characterized using the following cell-based assay for sodium-dependent glucose transport:
(§3) Inhibition of SGLT1 and SGLT2 activity was assessed in CHO K1 cells stably expressing either human SGLT1 or SGLT2, using the SGLT specific glucose analog methyl-glucopyranoside (Sigma Catalog No. M-9376). Cells were plated (45,000 cells/well) in white wall 96-well plates (COSTAR, Cat#3903) for 24 hours in growth medium, then a final concentration of 10 mM Na-Butyrate (ALDRICH Cat#30341-0) was added. The cells were incubated for 24 hours. On the day of the assay, cells were rinsed and treated with test compounds (at concentrations of 0.001 μM to 10 μM) in assay buffer (50 mM HEPES, 20 mM Tris base, 5 mM KCl, 1 mM MgCl2, 1 mM CaCl2 and 137 mM NaCl, pH 7.4) for 10 minutes. Cells were then incubated with ^14C-a-methyl-d-glucopyranoside (AMG, Amersham Catalog No. CFB 76), using 0.07 μCi per well in 500 μM AMG final concentration. The cells were incubated for 2 hours at 37° C. with 5% CO2 and washed two times with ice-cold Phosphate Buffer Solution (Cellgro Catalog No. 21030-CV). The cells were then solubilized by adding 60 μl of MICROSCINT™20 and the Na-dependent ^14C-AMG uptake was quantified by measuring radioactivity. Plates were counted in a TopCount (Packard, Meriden, Conn.)

The target of experiment [2] is T2, human SGLT2 (Homo sapiens, UniProt P31639).
T2 construct: expressed in transfected cells; host or cells: CHO-K1
T2 sequence (P31639 1-672): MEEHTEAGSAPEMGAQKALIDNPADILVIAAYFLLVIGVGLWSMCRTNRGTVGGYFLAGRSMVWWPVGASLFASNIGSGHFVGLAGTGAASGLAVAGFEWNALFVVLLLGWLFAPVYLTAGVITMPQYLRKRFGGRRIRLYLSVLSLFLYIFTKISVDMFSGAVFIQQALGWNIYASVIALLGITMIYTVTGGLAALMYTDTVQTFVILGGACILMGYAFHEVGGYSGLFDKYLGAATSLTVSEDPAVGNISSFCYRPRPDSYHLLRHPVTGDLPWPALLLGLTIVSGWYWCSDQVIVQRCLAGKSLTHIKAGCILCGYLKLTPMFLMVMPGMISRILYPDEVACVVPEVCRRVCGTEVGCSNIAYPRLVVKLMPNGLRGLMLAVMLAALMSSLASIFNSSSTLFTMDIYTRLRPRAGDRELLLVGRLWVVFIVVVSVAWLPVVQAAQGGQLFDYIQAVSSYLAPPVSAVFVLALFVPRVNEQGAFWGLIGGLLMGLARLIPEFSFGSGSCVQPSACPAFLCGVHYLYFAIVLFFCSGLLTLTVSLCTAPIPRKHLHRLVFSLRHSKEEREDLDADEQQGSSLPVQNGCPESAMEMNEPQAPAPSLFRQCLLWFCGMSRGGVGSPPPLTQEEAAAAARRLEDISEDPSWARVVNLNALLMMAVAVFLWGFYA
As to the kind of experiment: SGLT2 assay: Na-dependent 14C-AMG uptake in CHO-K1 cells stably expressing human SGLT2. In kind it is cell-based. The settings on record: for IC50: 500 μM AMG, 2 hours at 37° C. Here is the method: as §1, §2, §3

Molecules are shown by their SMILES.

One may read the IC50 as the midpoint of a concentration-inhibition curve. A higher IC50 goes with weaker potency in that assay. Take `Cc1cc(O)c([C@@H]2O[C@H](CO)[C@@H](O)[C@H](O)[C@H]2O)cc1Cc1ccc2c(c1)CC2` [Compound 6, (2S,3R,4R,5S,6R)-2-(5-((1,2-dihydrocyclobutabenzen-4-yl)methyl)-2-hydroxy-4-methylphenyl)-6-(hydroxymethyl)-tetrahydro-2H-pyran-3,4,5-triol]: the IC50 in experiment [1] was found to be 4 nM; in experiment [2] it was 1 nM.
As for `COc1cc(C)c(Cc2ccc3c(c2)CC3)cc1[C@@H]1O[C@H](CO)[C@@H](O)[C@H](O)[C@H]1O` [Compound 7, (2S,3R,4R,5S,6R)-2-(5-((1,2-dihydrocyclobutabenzen-4-yl)methyl)-2-methoxy-4-methylphenyl)-6-(hydroxymethyl)-tetrahydro-2H-pyran-3,4,5-triol], the concentration for half-maximal inhibition (IC50) in experiment [1] stood at 48 nM; in experiment [2] it was 1 nM.
As for `COc1cc(Cl)c(Cc2ccc3c(c2)CC3)cc1[C@@H]1O[C@H](CO)[C@@H](O)[C@H](O)[C@H]1O` [Compound 9], the figures for the IC50 in experiment [1] and in experiment [2] were 53 nM and 1 nM, respectively.
For `COc1cc(O)c([C@@H]2O[C@H](CO)[C@@H](O)[C@H](O)[C@H]2O)cc1Cc1ccc2c(c1)CC2` [Compound 10, (2S,3R,4R,5S,6R)-2-(5-((1,2-dihydrocyclobutabenzen-4-yl)methyl)-2-hydroxy-4-methoxyphenyl)-6-(hydroxymethyl)-tetrahydro-2H-pyran-3,4,5-triol] the same measures were 5 nM and 1 nM.
Take `COc1cc(OC)c([C@@H]2O[C@H](CO)[C@@H](O)[C@H](O)[C@H]2O)cc1Cc1ccc2c(c1)CC2` [Compound 11, (2S,3R,4R,5S,6R)-2-(5-((1,2-dihydrocyclobutabenzen-4-yl)methyl)-2,4-dimethoxyphenyl)-6-(hydroxymethyl)-tetrahydro-2H-pyran-3,4,5-triol]: the IC50 in experiment [1] turned out to be 58 nM; in experiment [2] it was 1 nM.
In the case of `CCc1cc(O)c([C@@H]2O[C@H](CO)[C@@H](O)[C@H](O)[C@H]2O)cc1Cc1ccc2c(c1)CC2` [Compound 12], the IC50 in experiment [1] was 3 nM; in experiment [2], 2 nM.
Consider `CCc1cc(OC)c([C@@H]2O[C@H](CO)[C@@H](O)[C@H](O)[C@H]2O)cc1Cc1ccc2c(c1)CC2` [Compound 13, (2S,3R,4R,5S,6R)-2-(5-((1,2-dihydrocyclobutabenzen-4-yl)methyl)-4-ethyl-2-methoxyphenyl)-6-(hydroxymethyl)-tetrahydro-2H-pyran-3,4,5-triol], for which the IC50 in experiment [1] is 32 nM; in experiment [2], 1 nM.
For `OC[C@H]1O[C@@H](c2cc(Cc3ccc4c(c3)CC4)c(C3CC3)cc2O)[C@H](O)[C@@H](O)[C@@H]1O` [Compound 14, (2S,3R,4R,5S,6R)-2-(5-(bicyclo[4.2.0]octa-1(6),2,4-trien-3-ylmethyl)-4-cyclopropyl-2-hydroxyphenyl)-6-(hydroxymethyl)oxane-3,4,5-triol], the results for the IC50 in experiment [1] and in experiment [2] were 3 nM and 6 nM, respectively.
For orientation: inhibition means the percentage by which the read-out fell short of the control. The compound `COc1cc(C2CC2)c(Cc2ccc3c(c2)CC3)cc1[C@@H]1O[C@H](CO)[C@@H](O)[C@H](O)[C@H]1O` [Compound 15, (2S,3R,4R,5S,6R)-2-(5-(bicyclo[4.2.0]octa-1(6),2,4-trien-3-ylmethyl)-4-cyclopropyl-2-methoxyphenyl)-6-(hydroxymethyl)oxane-3,4,5-triol] returned an inhibition at 0.3 µM in experiment [1] of 67%. Besides, the inhibition at 0.03 µM in experiment [2] turned out to be 31%.
`N#Cc1ccc([C@@H]2O[C@H](CO)[C@@H](O)[C@H](O)[C@H]2O)cc1Cc1ccc2c(c1)CC2` [Compound 16, 2-((1,2-dihydrocyclobutabenzen-4-yl)methyl)-4-((2S,3R,4R,5S,6R)-3,4,5-trihydroxy-6-(hydroxymethyl)-tetrahydro-2H-pyran-2-yl)benzonitrile] returned an inhibition at 0.3 µM in experiment [1] of 0%. The compound also yielded an inhibition at 0.03 µM in experiment [2] of 43%.
As for `N#Cc1cc(O)c([C@@H]2O[C@H](CO)[C@@H](O)[C@H](O)[C@H]2O)cc1Cc1ccc2c(c1)CC2` [Compound 17, 2-((1,2-dihydrocyclobutabenzen-4-yl)methyl)-5-hydroxy-4-((2S,3R,4R,5S,6R)-3,4,5-trihydroxy-6-(hydroxymethyl)-tetrahydro-2H-pyran-2-yl)benzonitrile], the results for the IC50 in experiment [1] and in experiment [2] were 192 nM and 1 nM, respectively.
In turn, `COc1cc(C#N)c(Cc2ccc3c(c2)CC3)cc1[C@@H]1O[C@H](CO)[C@@H](O)[C@H](O)[C@H]1O` [Compound 18, 2-((1,2-dihydrocyclobutabenzen-4-yl)methyl)-5-methoxy-4-((2S,3R,4R,5S,6R)-3,4,8-trihydroxy-6-(hydroxymethyl)-tetrahydro-2H-pyran-2-yl)benzonitrile] returned an inhibition at 0.3 µM in experiment [1] of 25%. The inhibition at 0.03 µM in experiment [2] worked out at 74%.
Compound `OC[C@H]1O[C@@H](c2cc(Cc3ccc4c(c3)CC4)c(F)cc2O)[C@H](O)[C@@H](O)[C@@H]1O` [Compound 19, (2S,3R,4R,5S,6R)-2-(5-(bicyclo[4.2.0]octa-1(6),2,4-trien-3-ylmethyl)-4-fluoro-2-hydroxyphenyl)-6-(hydroxymethyl)tetrahydro-2H-pyran-3,4,5-triol] showed an inhibition at 0.3 µM in experiment [1] of 62%. The compound further displayed an inhibition at 0.03 µM in experiment [2] of 38%.
On to `COc1cc(F)c(Cc2ccc3c(c2)CC3)cc1[C@@H]1O[C@H](CO)[C@@H](O)[C@H](O)[C@H]1O` [Compound 20, (2S,3R,4R,5S,6R)-2-(5-((1,2-dihydrocyclobutabenzen-4-yl)methyl)-4-fluoro-2-methoxyphenyl)-6-(hydroxymethyl)-tetrahydro-2H-pyran-3,4,5-triol], for which the inhibition at 0.3 µM in experiment [1] came out at 24%. The inhibition at 0.03 µM in experiment [2] amounted to 77%.
On to `CN(C)c1ccc([C@@H]2O[C@H](CO)[C@@H](O)[C@H](O)[C@H]2O)cc1Cc1ccc2c(c1)CC2` [Compound 21, (2S,3R,4R,5S,6R)-2-(3-(bicyclo[4.2.0]octa-1(6),2,4-trien-3-ylmethyl)-4-(dimethylamino)phenyl)-6-(hydroxymethyl)oxane-3,4,8-triol], for which, in experiment [1], the inhibition at 0.3 µM was 67%. The inhibition at 0.03 µM in experiment [2] came to 35%.
Regarding `CN(C)c1cc(O)c([C@@H]2O[C@H](CO)[C@@H](O)[C@H](O)[C@H]2O)cc1Cc1ccc2c(c1)CC2` [Compound 22, (2S,3R,4R,5S,6R)-2-(5-((1,2-dihydrocyclobutabenzen-4-yl)methyl)-4-(dimethylamino)-2-hydroxyphenyl)-6-(hydroxymethyl)-tetrahydro-2H-pyran-3,4,5-triol], the figures for the IC50 in experiment [1] and in experiment [2] were 12 nM and 3 nM, respectively.
